Experimental data from patent publication US20050009929A1, “Inhibition of the asexual reproduction of fungi” (priority 2001, published 2005).

Test system: Aspergillus niger
Experiment: Effect of farnesol on the sporulation of Aspergillus niger on malt extract agar
Format: cell-based
Conditions: 5 days at 25° C.; for Sporulation [%]: evaluated by appearance
Procedure: Quantities of 100 μl of a cell suspension of Aspergillus niger (1.5·10^7 cells/ml) were plated out onto malt agar extract (Merck) to which farnesol had been added in various quantities of 0; 25; 62.5; 125; 250 and 500 μM.

SMILES: CC(C)=CCCC(C)=CCCC(C)=CCO [farnesol]
- Sporulation [%] (farnesol 25 μM in agar): 90%
- Sporulation [%] (farnesol 62.5 μM in agar): 75%
- Sporulation [%] (farnesol 125 μM in agar): 50%
- Sporulation [%] (farnesol 250 μM in agar): 10%
- inhibition of sporulation (in words) (farnesol 500 μM in agar): completely suppressed
- Sporulation [%] (farnesol 500 μM in agar): 0%
- inhibition of growth (farnesol 25 to 500 μM in agar): None of the farnesol concentrations used inhibited growth
